Assays:
Experiment in all cases: Kinase profiling in a biochemical assay panel (mobility shift assays and ELISA), %-inhibition at 1 μM; selectivity entropy
[1] = biological target: T1, panel of more than 300 wild-type and mutant kinases (313 kinase panel) (Homo sapiens, UniProt P42680); settings: kinase TEC; 1 μM
T1 sequence (P42680 1-631): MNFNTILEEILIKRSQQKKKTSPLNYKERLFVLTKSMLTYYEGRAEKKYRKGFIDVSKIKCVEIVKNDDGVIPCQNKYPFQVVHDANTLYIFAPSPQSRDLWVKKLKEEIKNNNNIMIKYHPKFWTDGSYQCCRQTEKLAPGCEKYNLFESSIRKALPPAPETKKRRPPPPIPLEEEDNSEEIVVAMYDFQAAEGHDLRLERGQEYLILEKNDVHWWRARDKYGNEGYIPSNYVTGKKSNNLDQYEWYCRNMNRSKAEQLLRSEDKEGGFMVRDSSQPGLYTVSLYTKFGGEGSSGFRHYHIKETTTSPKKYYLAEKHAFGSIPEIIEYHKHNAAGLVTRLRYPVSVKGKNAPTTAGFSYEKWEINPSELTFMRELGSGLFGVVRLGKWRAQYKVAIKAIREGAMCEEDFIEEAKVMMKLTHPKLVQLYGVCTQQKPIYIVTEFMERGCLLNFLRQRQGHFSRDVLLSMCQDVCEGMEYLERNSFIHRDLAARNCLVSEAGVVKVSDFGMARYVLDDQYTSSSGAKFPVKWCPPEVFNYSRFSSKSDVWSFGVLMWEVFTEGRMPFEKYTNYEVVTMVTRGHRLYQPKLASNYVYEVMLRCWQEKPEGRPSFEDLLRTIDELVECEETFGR

[2] = biological target: panel of more than 300 wild-type and mutant kinases (313 kinase panel) (Homo sapiens, UniProt P42684); settings: kinase ARG; 1 μM compound
[3] = biological target: panel of more than 300 wild-type and mutant kinases (313 kinase panel) (Homo sapiens, UniProt P16234, V561D); settings: kinase PDGFRα(V561D); 1 μM
panel of more than 300 wild-type and mutant kinases (313 kinase panel) (Homo sapiens, UniProt P16234, V561D), sequence (P16234 24-1089 V561D): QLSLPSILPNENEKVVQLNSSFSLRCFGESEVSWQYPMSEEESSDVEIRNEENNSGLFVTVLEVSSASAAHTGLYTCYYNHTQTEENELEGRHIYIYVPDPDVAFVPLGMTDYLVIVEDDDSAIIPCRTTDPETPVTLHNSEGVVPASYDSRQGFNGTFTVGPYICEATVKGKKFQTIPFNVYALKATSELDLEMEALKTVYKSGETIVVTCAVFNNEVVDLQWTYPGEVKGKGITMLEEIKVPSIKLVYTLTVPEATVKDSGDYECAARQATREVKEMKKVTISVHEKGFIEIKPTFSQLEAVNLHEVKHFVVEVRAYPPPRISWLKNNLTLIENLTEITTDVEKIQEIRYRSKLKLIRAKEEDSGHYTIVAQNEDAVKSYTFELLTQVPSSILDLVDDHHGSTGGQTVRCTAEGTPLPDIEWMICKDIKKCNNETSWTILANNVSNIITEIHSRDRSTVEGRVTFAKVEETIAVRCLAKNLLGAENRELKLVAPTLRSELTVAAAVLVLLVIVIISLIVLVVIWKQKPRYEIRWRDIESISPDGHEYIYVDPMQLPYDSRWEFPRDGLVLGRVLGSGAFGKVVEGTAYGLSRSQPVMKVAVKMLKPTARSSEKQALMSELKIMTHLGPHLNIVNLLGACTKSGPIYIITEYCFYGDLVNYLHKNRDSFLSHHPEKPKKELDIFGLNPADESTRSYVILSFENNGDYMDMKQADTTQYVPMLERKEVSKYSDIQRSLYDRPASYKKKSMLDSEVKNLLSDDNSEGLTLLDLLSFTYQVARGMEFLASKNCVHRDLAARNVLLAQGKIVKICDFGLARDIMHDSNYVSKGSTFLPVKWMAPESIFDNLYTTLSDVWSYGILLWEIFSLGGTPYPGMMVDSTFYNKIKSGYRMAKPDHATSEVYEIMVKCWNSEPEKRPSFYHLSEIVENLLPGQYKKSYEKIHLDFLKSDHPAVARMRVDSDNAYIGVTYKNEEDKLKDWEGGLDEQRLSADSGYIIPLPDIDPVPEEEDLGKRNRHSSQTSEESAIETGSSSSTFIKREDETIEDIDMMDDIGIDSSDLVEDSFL

[4] = biological target: T2, panel of more than 300 wild-type and mutant kinases (313 kinase panel) (Homo sapiens, UniProt P52564); settings: kinase MAP2K6; compound at 1 μM
T2 sequence (P52564 1-334): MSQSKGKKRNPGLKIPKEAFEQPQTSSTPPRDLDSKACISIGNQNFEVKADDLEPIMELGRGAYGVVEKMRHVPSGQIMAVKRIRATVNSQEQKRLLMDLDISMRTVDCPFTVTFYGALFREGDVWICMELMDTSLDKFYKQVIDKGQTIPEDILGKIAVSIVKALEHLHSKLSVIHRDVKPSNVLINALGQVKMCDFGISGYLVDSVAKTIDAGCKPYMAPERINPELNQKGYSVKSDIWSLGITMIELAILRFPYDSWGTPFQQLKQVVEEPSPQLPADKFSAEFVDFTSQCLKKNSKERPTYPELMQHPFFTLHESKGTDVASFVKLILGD

[5] = biological target: panel of more than 300 wild-type and mutant kinases (313 kinase panel) (Homo sapiens, UniProt Q06187); settings: kinase BTK; 1 μM compound
[6] = biological target: T3, panel of more than 300 wild-type and mutant kinases (313 kinase panel) (Homo sapiens, UniProt Q8NE63); settings: kinase HIPK4; compound at 1 μM
T3 sequence (Q8NE63 1-616): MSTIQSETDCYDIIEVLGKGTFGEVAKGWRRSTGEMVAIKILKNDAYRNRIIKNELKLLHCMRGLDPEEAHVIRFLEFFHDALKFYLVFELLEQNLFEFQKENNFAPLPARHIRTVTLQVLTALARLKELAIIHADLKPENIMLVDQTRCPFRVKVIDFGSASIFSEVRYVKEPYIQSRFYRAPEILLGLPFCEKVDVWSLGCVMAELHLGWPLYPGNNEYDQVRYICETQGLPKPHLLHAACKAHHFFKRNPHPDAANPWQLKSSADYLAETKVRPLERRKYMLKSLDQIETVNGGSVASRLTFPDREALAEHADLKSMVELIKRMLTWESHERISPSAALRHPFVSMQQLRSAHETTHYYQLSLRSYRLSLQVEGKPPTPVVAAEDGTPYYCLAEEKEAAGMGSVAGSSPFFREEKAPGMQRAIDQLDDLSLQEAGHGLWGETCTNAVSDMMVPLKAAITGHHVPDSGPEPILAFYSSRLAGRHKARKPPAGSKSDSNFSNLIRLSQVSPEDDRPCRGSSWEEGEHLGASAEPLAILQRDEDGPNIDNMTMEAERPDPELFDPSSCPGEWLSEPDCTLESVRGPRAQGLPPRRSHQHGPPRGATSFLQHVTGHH

[7] = biological target: panel of more than 300 wild-type and mutant kinases (313 kinase panel) (Homo sapiens, UniProt Q96GD4); settings: kinase AurB; 1 μM compound
panel of more than 300 wild-type and mutant kinases (313 kinase panel) (Homo sapiens, UniProt Q96GD4), sequence (Q96GD4 whole entry, change not shown): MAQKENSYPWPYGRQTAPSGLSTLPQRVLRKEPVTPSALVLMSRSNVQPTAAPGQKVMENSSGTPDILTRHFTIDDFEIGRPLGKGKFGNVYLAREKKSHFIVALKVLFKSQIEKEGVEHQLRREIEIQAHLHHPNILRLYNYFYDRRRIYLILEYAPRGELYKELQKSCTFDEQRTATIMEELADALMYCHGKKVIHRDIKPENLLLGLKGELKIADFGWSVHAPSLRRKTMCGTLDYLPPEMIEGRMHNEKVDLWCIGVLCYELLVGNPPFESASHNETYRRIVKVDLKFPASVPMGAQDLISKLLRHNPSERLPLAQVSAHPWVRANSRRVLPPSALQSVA

[8] = biological target: panel of more than 300 wild-type and mutant kinases (313 kinase panel) (Homo sapiens, UniProt Q9BYP7); settings: kinase WNK3; compound at 1 μM
panel of more than 300 wild-type and mutant kinases (313 kinase panel) (Homo sapiens, UniProt Q9BYP7), sequence (Q9BYP7 whole entry, change not shown): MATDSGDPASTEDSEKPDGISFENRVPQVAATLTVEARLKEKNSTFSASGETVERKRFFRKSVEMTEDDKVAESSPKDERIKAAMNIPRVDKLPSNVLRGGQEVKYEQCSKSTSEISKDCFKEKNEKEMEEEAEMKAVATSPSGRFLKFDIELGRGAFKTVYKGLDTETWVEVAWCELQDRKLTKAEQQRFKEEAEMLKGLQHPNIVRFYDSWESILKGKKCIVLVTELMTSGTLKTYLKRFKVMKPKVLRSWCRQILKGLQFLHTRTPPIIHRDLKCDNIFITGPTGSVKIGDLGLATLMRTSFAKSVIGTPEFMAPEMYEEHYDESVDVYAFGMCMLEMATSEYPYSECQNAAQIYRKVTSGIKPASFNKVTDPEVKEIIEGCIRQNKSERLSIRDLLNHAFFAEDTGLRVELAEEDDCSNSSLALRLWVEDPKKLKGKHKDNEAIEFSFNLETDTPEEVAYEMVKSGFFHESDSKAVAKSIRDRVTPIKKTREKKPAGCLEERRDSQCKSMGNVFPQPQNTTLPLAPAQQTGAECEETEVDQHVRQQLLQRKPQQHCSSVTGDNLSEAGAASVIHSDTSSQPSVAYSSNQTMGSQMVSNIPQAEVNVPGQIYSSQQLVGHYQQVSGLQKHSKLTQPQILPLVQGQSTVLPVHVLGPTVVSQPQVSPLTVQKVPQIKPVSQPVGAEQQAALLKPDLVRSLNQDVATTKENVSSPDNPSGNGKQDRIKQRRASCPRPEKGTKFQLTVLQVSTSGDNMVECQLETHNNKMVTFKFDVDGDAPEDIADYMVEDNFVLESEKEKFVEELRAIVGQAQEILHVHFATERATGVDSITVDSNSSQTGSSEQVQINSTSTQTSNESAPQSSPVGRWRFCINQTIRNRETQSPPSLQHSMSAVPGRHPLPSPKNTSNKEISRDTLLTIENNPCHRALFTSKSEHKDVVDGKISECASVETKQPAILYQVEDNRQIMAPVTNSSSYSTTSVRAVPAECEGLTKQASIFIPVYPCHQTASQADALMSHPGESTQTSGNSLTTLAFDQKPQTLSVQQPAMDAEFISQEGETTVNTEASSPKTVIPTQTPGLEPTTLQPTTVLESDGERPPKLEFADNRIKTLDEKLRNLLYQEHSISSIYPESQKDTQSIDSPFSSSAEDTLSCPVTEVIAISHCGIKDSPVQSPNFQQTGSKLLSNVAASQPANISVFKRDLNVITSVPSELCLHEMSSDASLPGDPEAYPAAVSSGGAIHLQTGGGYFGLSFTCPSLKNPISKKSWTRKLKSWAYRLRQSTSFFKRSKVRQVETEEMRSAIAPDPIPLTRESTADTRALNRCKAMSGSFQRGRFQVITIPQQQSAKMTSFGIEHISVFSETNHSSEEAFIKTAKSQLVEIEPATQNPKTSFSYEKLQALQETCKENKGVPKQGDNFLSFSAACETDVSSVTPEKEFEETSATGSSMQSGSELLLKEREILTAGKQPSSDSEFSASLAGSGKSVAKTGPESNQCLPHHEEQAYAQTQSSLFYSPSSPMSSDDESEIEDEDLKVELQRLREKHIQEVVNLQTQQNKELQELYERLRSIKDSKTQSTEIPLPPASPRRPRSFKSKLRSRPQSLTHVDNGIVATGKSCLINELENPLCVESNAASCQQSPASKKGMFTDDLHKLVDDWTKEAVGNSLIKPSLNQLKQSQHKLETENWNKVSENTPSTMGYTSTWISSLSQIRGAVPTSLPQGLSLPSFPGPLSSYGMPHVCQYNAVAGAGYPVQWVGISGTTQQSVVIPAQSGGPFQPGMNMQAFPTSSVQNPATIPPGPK

[9] = biological target: panel of more than 300 wild-type and mutant kinases (313 kinase panel) (Homo sapiens, UniProt P57059); settings: kinase SIK; 1 μM

Compound | %-inhibition of TEC [1] | %-inhibition, ARG [2] | %-inhibition of PDGFRα(V561D) [3] | %-inhibition of MAP2K6 [4] | %-inhibition, BTK [5] | %-inhibition of HIPK4 [6] | %-inhibition, AurB [7] | %-inhibition of WNK3 [8] | %-inhibition of SIK [9]
CO[C@H]1C[C@@H]2CC[C@@H](C)[C@@](O)(O2)C(=O)C(=O)N2CCCC[C@H]2C(=O)O[C@H]([C@H](C)C[C@@H]2CC[C@@H](OC(=O)C(C)(CO)CO)[C@H](OC)C2)CC(=O)[C@H](C)/C=C(\C)[C@@H](O)[C@@H](OC)C(=O)[C@H](C)C[C@H](C)/C=C/C=C/C=C/1C [temsirolimus] | -9% | -1.55% | -4% | 15% | 18% | 2.19% | -4% | -13% | -5.28%
CC(=O)Nc1cccc(-n2c(=O)n(C3CC3)c(=O)c3c(Nc4ccc(I)cc4F)n(C)c(=O)c(C)c32)c1 [trametinib] | -7.53% | -4% | 2.22% | -21% | 18% | 2.78% | -4% | 1% | -3%
CCCS(=O)(=O)Nc1ccc(F)c(C(=O)c2c[nH]c3ncc(-c4ccc(Cl)cc4)cc23)c1F [vemurafenib] | -0.191% | 7% | 56% | 31% | 2% | -0.437% | 6% | 53% | 24%

— PMC3961306, “Comparison of the Cancer Gene Targeting and Biochemical Selectivities of All Targeted Kinase Inhibitors Approved for Clinical Use” (PLoS ONE, 2014)
